Assay results: ChEMBL document CHEMBL1121532, “Pyrido[2,1-b]quinazolinecarboxylic acids as orally active antiallergy agents” (1980)

Columns and labels:
Format in all cases: functional
[1] = tested on: Rattus norvegicus; assay: % inhibition of antiallergic activity in the rat passive cutaneous anaphylaxis (PCA) test after giving intraperitoneal dose of 16 mg/kg; details: ip
[2] = species: Rattus norvegicus; assay: Dose that causes 50% inhibition in the expected wheal size when given perorally; details: po, read-out: ID50 (the source's name)
[3] = tested on: Rattus norvegicus; assay: % inhibition of antiallergic activity in the rat passive cutaneous anaphylaxis (PCA) test after giving peroral dose of 32 mg/kg; details: route oral
[4] = tested on: Rattus norvegicus; assay: % inhibition of antiallergic activity in the rat passive cutaneous anaphylaxis (PCA) test after giving intraperitoneal dose of 8 mg/kg; details: ip
[5] = tested on: Rattus norvegicus; assay: % inhibition of antiallergic activity in the rat passive cutaneous anaphylaxis (PCA) test after giving intraperitoneal dose of 16 mg/kg; Not significant; details: ip

Row | Compound | inhibition in vivo at 16 mg/kg [1] | ED50 [2] | inhibition in vivo at 32 mg/kg [3] | inhibition in vivo at 8 mg/kg [4] | inhibition in vivo at 16 mg/kg [5]
1 | CC(=O)c1ccc2nc3ccc(C(=O)O)cc3c(=O)n2c1 | 44% |  |  |  | 
2 | CC(C)c1ccc2nc3ccc(C(=O)O)cc3c(=O)n2c1 | 81% | 0.026 mg/kg | 92% |  | 
3 | CC(C)c1ccc2nc3ccc(C(=O)O)cn3c(=O)c2c1 | 76% | 0.45 mg/kg | 87% |  | 
4 | Cc1ccc2nc3ccc(C(=O)O)cc3c(=O)n2c1 | 69% | 7.11 mg/kg | 81% |  | 
5 | O=C(O)c1cc(=O)c2c(OCC(O)COc3cccc4oc(C(=O)O)cc(=O)c34)cccc2o1 [CROMOLYN SODIUM] |  |  | 18% | 46% | 
6 | O=C(O)c1ccc2nc3ccccn3c(=O)c2c1 [DOQUALAST] |  |  |  |  | 16%
7 | Cc1ccc2nc3ccc(C(=O)O)cn3c(=O)c2c1 | 58% | 3.53 mg/kg | 83% |  | 
8 | CO/N=C(\C)c1ccc2nc3ccc(C(=O)O)cc3c(=O)n2c1 | 36% |  |  |  | 
9 | O=C(O)c1ccc2nc3ccccc3c(=O)n2c1 |  |  |  |  | 17%
